Measured values taken from ChEMBL document CHEMBL5380794, “Discovery of a Potent and Selective STAT5 PROTAC Degrader with Strong Antitumor Activity In Vivo in Acute Myeloid Leukemia” (J Med Chem, 2023).
The source made the active and inactive calls. The calls are words filed in the database; no cut-off is given here.

How the values were obtained:
Protein cereblon = Protein cereblon (Homo sapiens, UniProt Q96SW2); assay: Binding affinity to GST-tagged wild type human CRBN assessed as inhibition constant by TR-FRET assay
Protein cereblon, sequence (Q96SW2 whole entry): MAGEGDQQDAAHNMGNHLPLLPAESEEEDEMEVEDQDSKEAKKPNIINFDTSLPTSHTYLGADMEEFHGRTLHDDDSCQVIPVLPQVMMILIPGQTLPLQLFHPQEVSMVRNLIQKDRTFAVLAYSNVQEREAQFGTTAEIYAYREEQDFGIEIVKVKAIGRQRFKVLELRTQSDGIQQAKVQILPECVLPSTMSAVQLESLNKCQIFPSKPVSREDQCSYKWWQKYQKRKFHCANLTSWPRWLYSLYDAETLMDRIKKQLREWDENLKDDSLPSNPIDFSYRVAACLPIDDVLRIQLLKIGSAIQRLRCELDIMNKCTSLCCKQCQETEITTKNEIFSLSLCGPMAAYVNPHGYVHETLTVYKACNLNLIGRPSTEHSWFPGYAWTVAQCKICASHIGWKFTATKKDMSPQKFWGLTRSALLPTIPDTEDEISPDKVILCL

RS4-11 = assay: Antiproliferative activity against human RS4-11 cells assessed as cell growth inhibition measured for 4 days by celltiter-glo assay; settings: RS4-11, 96 h
[1] = Clearance in SCID mouse at 150 mg/kg, ip; format: ADME, organism-based; settings: in vivo
[2] = Toxicity in SCID mouse assessed as effect on sign of illness at 50 to 200 mg/kg, ip administered 5 days a week for 3 weeks; format: organism-based; settings: in vivo, 120 h, dose 50-200 mg/kg, time 5 day
OCI-AML2 [3] = assay: Antiproliferative activity against human OCI-AML2 cells assessed as cell growth inhibition measured for 4 days by celltiter-glo assay; settings: OCI-AML2, 96 h
[4] = Apparent volume of distribution in SCID mouse at 150 mg/kg, ip; format: ADME, organism-based; settings: in vivo
OCI-AML2 [5] = assay: Antiproliferative activity against human OCI-AML2 cells assessed as maximal cell growth inhibition measured for 4 days by celltiter-glo assay relative to control; format: functional; settings: time 4 day
MV4-11 [6] = assay: Antitumor activity against human MV4-11 cells xenografted in SCID mouse assessed as tumor growth inhibition at 100 mg/kg, ip administered 5 days a week for 3 weeks; format: functional; settings: MV4-11, 504 h, read-out: TGI
STAT5A/STAT5B = molecular target: T1, STAT5A/STAT5B (Homo sapiens, UniProt P42229+P51692); assay: Induction of STAT5A/5B degradation in human SKNO-1 cells measured for 18 hrs by immunoblotting analysis; format: cell-based
T1 sequence (P42229 whole entry): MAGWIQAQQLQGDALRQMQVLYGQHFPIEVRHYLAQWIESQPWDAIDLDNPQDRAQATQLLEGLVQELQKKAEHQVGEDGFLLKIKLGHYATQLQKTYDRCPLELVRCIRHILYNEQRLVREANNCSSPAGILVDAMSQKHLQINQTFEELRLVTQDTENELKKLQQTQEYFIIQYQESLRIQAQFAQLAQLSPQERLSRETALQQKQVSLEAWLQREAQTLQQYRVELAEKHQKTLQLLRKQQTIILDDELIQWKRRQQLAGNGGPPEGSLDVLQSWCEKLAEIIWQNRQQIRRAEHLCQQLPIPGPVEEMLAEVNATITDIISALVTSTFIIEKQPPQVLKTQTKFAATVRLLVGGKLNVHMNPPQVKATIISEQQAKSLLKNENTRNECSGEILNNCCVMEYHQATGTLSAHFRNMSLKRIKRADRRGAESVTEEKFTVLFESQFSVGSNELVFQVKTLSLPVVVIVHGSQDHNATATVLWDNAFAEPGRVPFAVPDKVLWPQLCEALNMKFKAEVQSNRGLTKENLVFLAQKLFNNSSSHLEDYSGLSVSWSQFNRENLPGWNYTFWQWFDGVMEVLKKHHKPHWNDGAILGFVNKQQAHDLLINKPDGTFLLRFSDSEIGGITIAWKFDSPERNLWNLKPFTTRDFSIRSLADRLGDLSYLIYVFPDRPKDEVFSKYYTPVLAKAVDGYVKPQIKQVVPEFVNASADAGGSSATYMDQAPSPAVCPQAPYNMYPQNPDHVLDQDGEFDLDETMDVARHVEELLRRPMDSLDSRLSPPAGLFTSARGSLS
T1 sequence (P51692 whole entry): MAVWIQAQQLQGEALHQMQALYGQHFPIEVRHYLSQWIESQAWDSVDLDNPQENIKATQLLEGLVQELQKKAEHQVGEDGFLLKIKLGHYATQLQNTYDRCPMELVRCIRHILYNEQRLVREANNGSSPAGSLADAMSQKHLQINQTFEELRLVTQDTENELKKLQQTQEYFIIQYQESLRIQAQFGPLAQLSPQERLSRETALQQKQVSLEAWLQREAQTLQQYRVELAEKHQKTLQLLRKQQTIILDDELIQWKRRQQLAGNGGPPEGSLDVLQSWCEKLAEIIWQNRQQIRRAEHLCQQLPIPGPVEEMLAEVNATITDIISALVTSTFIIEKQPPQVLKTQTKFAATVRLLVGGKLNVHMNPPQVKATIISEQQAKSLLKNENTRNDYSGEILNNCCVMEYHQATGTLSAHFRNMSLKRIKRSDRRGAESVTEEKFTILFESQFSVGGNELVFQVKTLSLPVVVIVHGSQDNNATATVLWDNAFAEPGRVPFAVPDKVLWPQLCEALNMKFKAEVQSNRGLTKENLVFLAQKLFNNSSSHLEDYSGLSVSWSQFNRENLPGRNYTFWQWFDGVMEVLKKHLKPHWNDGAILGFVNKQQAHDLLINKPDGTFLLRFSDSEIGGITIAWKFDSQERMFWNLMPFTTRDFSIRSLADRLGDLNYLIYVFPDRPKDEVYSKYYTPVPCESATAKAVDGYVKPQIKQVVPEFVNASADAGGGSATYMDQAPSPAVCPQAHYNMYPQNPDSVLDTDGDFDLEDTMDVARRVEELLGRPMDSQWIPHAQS

[7] = molecular target: T2, Signal transducer and activator of transcription 5A (Homo sapiens, UniProt P42229); assay: Induction of STAT5 degradation in human SKNO-1 cells measured for 18 hrs by Western blot analysis; format: cell-based
T2 sequence (P42229 whole entry): T1 sequence (P42229 whole entry)

MV4-11 [8] = assay: Effect on STAT1 level in human MV4-11 cells upto 5 uM measured for 18 hrs by Western blot analysis; format: functional, cell-based

For CN(CCCC#Cc1cccc2c1CN(C1CCC(=O)NC1=O)C2=O)C(=O)CCN(C(=O)[C@@H]1CCCN1C(=O)[C@@H](NC(=O)c1cc2cc(C(F)(F)P(=O)(O)O)ccc2s1)C(C)(C)C)c1ccc(-c2nccs2)cc1 (stereo partly specified), the Ki (Protein cereblon) was 170 nM, the IC50 (RS4-11) was > 15000 nM and the CL/F [1] was 12.8 mL/min/kg. For the same molecule, the Activity [2] was “Non-Toxic”, the IC50 (OCI-AML2 [3]) was > 15000 nM and the Vz [4] was 2.1 L/kg. The Imax (OCI-AML2 [5]) was <5%, the inhibition in vivo at 100 mg/kg (MV4-11 [6]) was 60% and the DC50 (STAT5A/STAT5B) was 80 nM. The DC50 [7] was 100 nM and the Activity (MV4-11 [8]) was “inactive”.
